Values quoted from earlier work in patent US20070248669A1, “Oral sustained release formulation” (priority 2006, published 2007).
Counter-ions that a name gives are not always drawn.

Legend:
[1] = daily multiple dosing regimen, patients under treatment
[2] = compressed tablets, therapeutic dosing

**Q.** For `COc1ccc(C(CN(C)C)C2(O)CCCCC2)cc1` (stereo not drawn) [venlafaxine hydrochloride, 1-[2-(dimethylamino)-1-(4-methoxyphenyl)-ethyl]cyclohexanol], which patients experiencing nausea [1] is on record?
**A.** about forty five

**Q.** What about the patients with vomiting [1] of the same molecule?
**A.** about seventeen

**Q.** What about the “time after administration until normal plasma levels are approached” value [2] of the same molecule?
**A.** about twelve
